Experimental findings from article PMC4703981, “Autophosphorylation at Thr279 of Entamoeba histolytica atypical kinase EhAK1 is required for activity and regulation of erythrophagocytosis” (Scientific Reports, 2016) are described below.

This experiment addresses T1, EhAK1 (Entamoeba histolytica, UniProt C4M9G9).
T1 construct: gene EHI_105830
The following applies: maximal quench on ATP titration, no affinity constant.

T1 sequence (C4M9G9 entry or part of it): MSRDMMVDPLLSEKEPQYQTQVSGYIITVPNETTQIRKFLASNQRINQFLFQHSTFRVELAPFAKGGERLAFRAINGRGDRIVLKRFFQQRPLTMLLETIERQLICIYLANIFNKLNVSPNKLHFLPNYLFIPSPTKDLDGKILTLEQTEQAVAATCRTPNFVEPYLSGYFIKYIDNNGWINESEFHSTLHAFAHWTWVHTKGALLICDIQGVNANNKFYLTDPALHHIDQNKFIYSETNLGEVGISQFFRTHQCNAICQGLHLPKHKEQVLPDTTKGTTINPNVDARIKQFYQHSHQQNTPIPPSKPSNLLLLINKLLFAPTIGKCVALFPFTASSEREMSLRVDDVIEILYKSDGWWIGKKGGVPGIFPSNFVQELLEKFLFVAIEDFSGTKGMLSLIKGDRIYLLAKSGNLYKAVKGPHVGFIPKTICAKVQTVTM

Regarding `Nc1ncnc2c1ncn2[C@@H]1O[C@H](COP(=O)(O)OP(=O)(O)OP(=O)(O)O)[C@@H](O)[C@H]1O` [ATP], the “% decrease in Trp fluorescence” value worked out at 76%.
